# Test results from ChEMBL document CHEMBL1201862, “PubChem BioAssay data set” (2004).
#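 Tested at 5 concentrations; 48 h exposure; 96-well plates; endpoints linearly interpolated, else capped at highest concentration. GI50: concentration for 50% inhibition of growth.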 Active and inactive are the calls of the source. Rule as the data show it: active = GI50 up to about 1.1 µM and inactive = higher.
# How the values were obtained:
# Assay in all cases: inhibition of tumour cell growth, NCI panel, 48 h
# DLD-1 = test system: DLD-1
# DMS-114 = test system: DMS-114
# DMS-273 = test system: DMS-273
# HOP-18 = test system: HOP-18
# KM-20L2 = test system: KM-20L2
# LXFL 529 = test system: LXFL 529
# M19-MEL = test system: M19-MEL
# XF498 = test system: XF498
# RXF 631 = test system: RXF 631
SMILES,GI50 (DLD-1),GI50 (DMS-114),GI50 (DMS-273),GI50 (HOP-18),GI50 (KM-20L2),GI50 (LXFL 529),GI50 (M19-MEL),GI50 (XF498),GI50 (RXF 631)
CCN(CC)CCCNc1ccc2ncn3c4ccc(O)cc4c(=O)c1c23,1.24 µM (inactive),3.37 µM (inactive),0.553 µM (active),18.6 µM (inactive),2.85 µM (inactive),2.65 µM (inactive),5.83 µM (inactive),0.239 µM (active),
CSC(=S)N/N=C/c1nccc2ccccc12,0.537 µM (active),0.627 µM (active),1.85 µM (inactive),1.82 µM (inactive),0.43 µM (active),0.488 µM (active),2.29 µM (inactive),0.809 µM (active),4.69 µM (inactive)
CCOc1ccc(/N=C\c2cc(OC)c(OC)c(OC)c2)cc1,> 100 µM (inactive),> 100 µM (inactive),> 100 µM (inactive),> 100 µM (inactive),> 100 µM (inactive),> 100 µM (inactive),> 100 µM (inactive),> 100 µM (inactive),
COc1ccc2nc3ccccc3c(NCCCN(C)CCCl)c2c1,0.233 µM (active),0.311 µM (active),0.153 µM (active),,0.17 µM (active),0.0995 µM (active),0.353 µM (active),0.212 µM (active),0.23 µM (active)
C[C@]12CCC3[C@@H](CC[C@@H]4c5nonc5CC[C@]34C)C1CCC(=O)N2 (stereo partly specified),,,> 100 µM (inactive),> 100 µM (inactive),> 100 µM (inactive),> 100 µM (inactive),> 100 µM (inactive),> 100 µM (inactive),> 100 µM (inactive)
[O-][S+]1Nc2cccc(C(F)(F)F)c2S1 (stereo unspecified),34.4 µM (inactive),20.1 µM (inactive),25.1 µM (inactive),72.4 µM (inactive),29.9 µM (inactive),26.5 µM (inactive),66.1 µM (inactive),21.1 µM (inactive),
O=c1nc2sc3ccc4ccccc4c3n2nc1-c1ccccc1,35.6 µM (inactive),> 100 µM (inactive),39.2 µM (inactive),30.5 µM (inactive),62.8 µM (inactive),44.7 µM (inactive),78.3 µM (inactive),29.6 µM (inactive),36.6 µM (inactive)
CC(C)N1CC2CC(CN(C(=O)c3ccccc3)C2)C1.[O-][Cl+3]([O-])([O-])O,,> 100 µM (inactive),> 100 µM (inactive),> 100 µM (inactive),> 100 µM (inactive),> 100 µM (inactive),> 100 µM (inactive),> 100 µM (inactive),> 100 µM (inactive)
CC1=C(/C(C)=N/NC(=O)C(N)=O)Sc2ccccc2N1,> 100 µM (inactive),> 100 µM (inactive),> 100 µM (inactive),> 100 µM (inactive),> 100 µM (inactive),> 100 µM (inactive),> 100 µM (inactive),> 100 µM (inactive),
COc1cc(/C=C/C(=O)c2sc(Nc3ccccc3)nc2C)ccc1O,37.5 µM (inactive),44.6 µM (inactive),> 100 µM (inactive),> 100 µM (inactive),> 100 µM (inactive),,> 100 µM (inactive),,
O=C(N/C(=C\c1ccc(F)cc1)c1nc2ccccc2[nH]1)c1ccccc1,> 100 µM (inactive),> 100 µM (inactive),,> 100 µM (inactive),> 100 µM (inactive),> 100 µM (inactive),> 100 µM (inactive),> 100 µM (inactive),> 100 µM (inactive)
COc1ccc(C(=O)C(C(=O)C(=O)Nc2nccs2)c2ccc(OC)cc2)cc1 (stereo unspecified),> 100 µM (inactive),> 100 µM (inactive),> 100 µM (inactive),> 100 µM (inactive),> 100 µM (inactive),> 100 µM (inactive),,> 100 µM (inactive),
CC1=C(C(=O)Nc2cc(F)c(F)cc2F)C(c2ccc3c(c2)OCO3)C(C(=O)Nc2cc(F)c(F)cc2F)=C(C)N1,18.9 µM (inactive),17.7 µM (inactive),,,22.3 µM (inactive),23.2 µM (inactive),20.7 µM (inactive),6.34 µM (inactive),
O=C(c1ccc(Cl)cc1)c1ccc(OCCCCCCCCCCOc2ccc(C(=O)c3ccc(Cl)cc3)cc2)cc1,> 100 µM (inactive),> 100 µM (inactive),> 100 µM (inactive),,> 100 µM (inactive),,,,> 100 µM (inactive)
C[C@@H]1CC(=O)C2CCCC1C2=O (stereo partly specified),> 100 µM (inactive),> 100 µM (inactive),> 100 µM (inactive),> 100 µM (inactive),> 100 µM (inactive),> 100 µM (inactive),> 100 µM (inactive),,> 100 µM (inactive)
COc1cc2cc(OC)c3cc4c(cc3c2c(OC)c1OC)OCO4,18.1 µM (inactive),35.7 µM (inactive),15.1 µM (inactive),67.6 µM (inactive),11.6 µM (inactive),31.3 µM (inactive),20.8 µM (inactive),,32.5 µM (inactive)
COc1cc(C(=O)C/C(CCC(=O)Nc2ccccc2[N+](=O)[O-])=N\NC(N)=O)ccc1O,,> 100 µM (inactive),> 100 µM (inactive),89.1 µM (inactive),> 100 µM (inactive),,> 100 µM (inactive),6.49 µM (inactive),> 100 µM (inactive)
NC(CS)C(=O)NCCNc1ccc(NCCNC(=O)C(N)CS)c2c1C(=O)c1c(O)ccc(O)c1C2=O (stereo unspecified),0.121 µM (active),0.00143 µM (active),0.00168 µM (active),0.439 µM (active),0.0618 µM (active),0.106 µM (active),0.0318 µM (active),0.0138 µM (active),
COc1c(C(=O)O)oc2c(OC)cccc12,,> 100 µM (inactive),> 100 µM (inactive),> 100 µM (inactive),,> 100 µM (inactive),> 100 µM (inactive),,
CC(=O)Nc1ccc(-c2nnc(SCC(=O)Nc3ccccc3[N+](=O)[O-])o2)cc1,> 100 µM (inactive),27.9 µM (inactive),> 100 µM (inactive),> 100 µM (inactive),> 100 µM (inactive),29.9 µM (inactive),> 100 µM (inactive),,
C1CCOC2(CCC3(CC2)OCCCCO3)OC1,> 100 µM (inactive),> 100 µM (inactive),> 100 µM (inactive),> 100 µM (inactive),> 100 µM (inactive),> 100 µM (inactive),> 100 µM (inactive),,
CCCC(O)[C@@H](O)c1ccc2c(c1O)C(=O)c1c(OC)cccc1C2=O (stereo partly specified),36.9 µM (inactive),26.2 µM (inactive),35.5 µM (inactive),50.8 µM (inactive),50.9 µM (inactive),,24.2 µM (inactive),20.2 µM (inactive),28.2 µM (inactive)
CCCCCCCCCCCCCCCCCC(=O)NCC(COP(=O)([O-])OCC[N+](C)(C)C)OC (stereo unspecified),2.59 µM (inactive),10.6 µM (inactive),1.58 µM (inactive),3.78 µM (inactive),2.23 µM (inactive),6.78 µM (inactive),2.43 µM (inactive),2.71 µM (inactive),13.4 µM (inactive)
C[N+](C)(C)CC1CCC(C[N+](C)(C)C)C1=O (stereo unspecified),2.2 µM (inactive),2.34 µM (inactive),2.16 µM (inactive),0.794 µM (active),3.18 µM (inactive),0.555 µM (active),1.94 µM (inactive),2.03 µM (inactive),5.47 µM (inactive)
COc1ccc(C2Cc3cc(OC)c(OC)c(OC)c3C2)cc1 (stereo unspecified),44.7 µM (inactive),27.8 µM (inactive),36.8 µM (inactive),72.3 µM (inactive),49.8 µM (inactive),,41.9 µM (inactive),11.3 µM (inactive),
O=P1(NCCCl)OCCCN1CCCl (stereo unspecified) [IFOSFAMIDE],380 µM (inactive),399 µM (inactive),364 µM (inactive),104 µM (inactive),385 µM (inactive),498 µM (inactive),395 µM (inactive),381 µM (inactive),
